# Measurements reported in ChEMBL document CHEMBL4507259 (2021).
# Activity calls are given as the source filed them. The rule behind the calls is not given here.
# Experiments:
# LNCaP-Clone-FGC = test: LnCaP-FGC Proliferation; assay type: functional, cell-based; conditions: Homo sapiens
# [1] = biological target: T1, Sodium-dependent serotonin transporter (Homo sapiens, UniProt P31645); test: 5-HT transporter (h) CEREP ligand profiling; conditions: filed as antagonist, Compound concentration 10.0 uM
# [2] = biological target: Na+ channel (site 2); sodium channel alpha subunit (family) (Homo sapiens, UniProt P35498+P35499+Q01118+Q14524+Q15858+Q99250+Q9NY46+Q9UI33+Q9UQD0+Q9Y5Y9); test: Na+ channel (site 2) CEREP ligand profiling; assay type: protein assay; conditions: compound concentration 10 uM
# [3] = biological target: Delta-type opioid receptor (Homo sapiens) (UniProt P41143); test: delta (DOP) (h) CEREP ligand profiling; conditions: filed as agonist, Compound concentration 10.0 uM
# [4] = biological target: Ca2+ channel (L, diltiazem site) (benzothiazepines); voltage-gated L-type calcium channel (family) (Homo sapiens, UniProt O60840+Q01668+Q13698+Q13936); test: Ca2+ channel (L, diltiazem site) (benzothiazepines) CEREP ligand profiling; assay type: protein assay; conditions: compound concentration 10 uM
# [5] = system: Tyrosine-protein kinase ABL1 (Homo sapiens), P00519 [F317I]; conditions: Compound concentration 1000.0 nM
# [6] = system: ALK tyrosine kinase receptor (Homo sapiens), Q9UM73 [C1156Y]; conditions: Compound concentration 1000.0 nM
# [7] = system: ALK tyrosine kinase receptor (Homo sapiens), Q9UM73 [L1196M]; conditions: Compound concentration 1000.0 nM
# [8] = biological target: Serine/threonine-protein kinase BRSK2 (Homo sapiens) (UniProt Q8IWQ3); conditions: Compound concentration 1000.0 nM
# [9] = biological target: Calcium/calmodulin-dependent protein kinase type 1D (Homo sapiens) (UniProt Q8IU85); conditions: Compound concentration 1000.0 nM
# [10] = biological target: Calcium/calmodulin-dependent protein kinase kinase 2 (Homo sapiens) (UniProt Q96RR4); conditions: Compound concentration 1000.0 nM
# [11] = biological target: Cyclin-dependent kinase 7 (Homo sapiens) (UniProt P50613); conditions: Compound concentration 1000.0 nM
# [12] = biological target: Serine/threonine-protein kinase Chk2 (Homo sapiens) (UniProt O96017); conditions: Compound concentration 1000.0 nM
# [13] = biological target: Death-associated protein kinase 2 (Homo sapiens) (UniProt Q9UIK4); conditions: Compound concentration 1000.0 nM
# [14] = biological target: Serine/threonine-protein kinase DCLK1 (Homo sapiens) (UniProt O15075); conditions: Compound concentration 1000.0 nM
# [15] = biological target: Ephrin type-B receptor 2 (Homo sapiens) (UniProt P29323); conditions: Compound concentration 1000.0 nM
# [16] = biological target: Ephrin type-B receptor 4 (Homo sapiens) (UniProt P54760); conditions: Compound concentration 1000.0 nM
# [17] = biological target: Mitogen-activated protein kinase 1 (Homo sapiens) (UniProt P28482); conditions: Compound concentration 1000.0 nM
# [18] = biological target: Beta-adrenergic receptor kinase 1 (Homo sapiens) (UniProt P25098); conditions: Compound concentration 1000.0 nM
# [19] = biological target: G protein-coupled receptor kinase 3 (Homo sapiens) (UniProt P35626); conditions: Compound concentration 1000.0 nM
# [20] = biological target: Glycogen synthase kinase-3 alpha (Homo sapiens) (UniProt P49840); conditions: Compound concentration 1000.0 nM
# [21] = biological target: Tyrosine-protein kinase HCK (Homo sapiens) (UniProt P08631); conditions: Compound concentration 1000.0 nM
# [22] = biological target: Tyrosine-protein kinase JAK3 (Homo sapiens) (UniProt P52333); conditions: Compound concentration 1000.0 nM
# [23] = biological target: Mast/stem cell growth factor receptor Kit (Homo sapiens) (UniProt P10721); conditions: Compound concentration 1000.0 nM
# [24] = biological target: Tyrosine-protein kinase Lck (Homo sapiens) (UniProt P06239); conditions: Compound concentration 1000.0 nM
# [25] = biological target: Mitogen-activated protein kinase kinase kinase 4 (Homo sapiens) (UniProt Q9Y6R4); conditions: Compound concentration 1000.0 nM
# [26] = biological target: Mitogen-activated protein kinase kinase kinase kinase 5 (Homo sapiens) (UniProt Q9Y4K4); conditions: Compound concentration 1000.0 nM
# [27] = biological target: MAP kinase-activated protein kinase 5 (Homo sapiens) (UniProt Q8IW41); conditions: Compound concentration 1000.0 nM
# [28] = biological target: Mitogen-activated protein kinase kinase kinase 9 (Homo sapiens) (UniProt P80192); conditions: Compound concentration 1000.0 nM
# [29] = biological target: Serine/threonine-protein kinase PAK 1 (Homo sapiens) (UniProt Q13153); conditions: Compound concentration 1000.0 nM
# [30] = biological target: Serine/threonine-protein kinase PAK 4 (Homo sapiens) (UniProt O96013); conditions: Compound concentration 1000.0 nM
# [31] = biological target: Phosphorylase b kinase gamma catalytic chain, skeletal muscle/heart isoform (Homo sapiens) (UniProt Q16816); conditions: Compound concentration 1000.0 nM
# [32] = biological target: Serine/threonine-protein kinase pim-3 (Homo sapiens) (UniProt Q86V86); conditions: Compound concentration 1000.0 nM
# [33] = biological target: Protein kinase C epsilon type (Homo sapiens) (UniProt Q02156); conditions: Compound concentration 1000.0 nM
# [34] = system: Proto-oncogene tyrosine-protein kinase receptor Ret (Homo sapiens), P07949 [V804M]; conditions: Compound concentration 1000.0 nM
# [35] = biological target: Ribosomal protein S6 kinase alpha-3 (Homo sapiens) (UniProt P51812); conditions: Compound concentration 1000.0 nM
# [36] = biological target: NUAK family SNF1-like kinase 2 (Homo sapiens) (UniProt Q9H093); conditions: Compound concentration 1000.0 nM
# [37] = biological target: Tyrosine-protein kinase SYK (Homo sapiens) (UniProt P43405); conditions: Compound concentration 1000.0 nM
# [38] = biological target: Tyrosine-protein kinase Tec (Homo sapiens) (UniProt P42680); conditions: Compound concentration 1000.0 nM
# [39] = biological target: Angiopoietin-1 receptor (Homo sapiens) (UniProt Q02763); conditions: Compound concentration 1000.0 nM
# [40] = biological target: Serine/threonine-protein kinase WNK2 (Homo sapiens) (UniProt Q9Y3S1); conditions: Compound concentration 1000.0 nM
# [41] = biological target: 5-hydroxytryptamine receptor 5A (Homo sapiens) (UniProt P47898); conditions: Compound concentration 10.0 uM
# [42] = biological target: T1, Sodium-dependent serotonin transporter; conditions: Compound concentration 10.0 uM
# [43] = biological target: Histamine H3 receptor (Homo sapiens) (UniProt Q9Y5N1); conditions: Compound concentration 10.0 uM
# T1 sequence (P31645 whole entry, looked up): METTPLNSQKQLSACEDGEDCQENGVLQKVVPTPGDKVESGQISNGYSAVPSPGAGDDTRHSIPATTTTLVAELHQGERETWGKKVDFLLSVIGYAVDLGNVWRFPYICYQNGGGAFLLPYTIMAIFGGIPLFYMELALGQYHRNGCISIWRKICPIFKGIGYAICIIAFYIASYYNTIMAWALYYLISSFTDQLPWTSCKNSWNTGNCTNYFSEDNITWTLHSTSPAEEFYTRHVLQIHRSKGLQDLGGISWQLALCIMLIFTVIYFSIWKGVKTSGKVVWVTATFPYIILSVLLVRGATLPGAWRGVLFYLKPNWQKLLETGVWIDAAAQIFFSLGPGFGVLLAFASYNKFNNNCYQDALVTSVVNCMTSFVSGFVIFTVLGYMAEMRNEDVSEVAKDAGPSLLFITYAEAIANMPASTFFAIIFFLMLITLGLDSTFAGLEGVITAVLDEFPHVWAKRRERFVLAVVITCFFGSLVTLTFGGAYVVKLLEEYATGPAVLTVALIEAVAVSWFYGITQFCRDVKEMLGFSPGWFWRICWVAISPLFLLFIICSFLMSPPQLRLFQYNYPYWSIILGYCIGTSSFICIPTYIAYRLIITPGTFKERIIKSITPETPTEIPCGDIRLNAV
# Phosphorylase b kinase gamma catalytic chain, skeletal muscle/heart isoform (Homo sapiens), sequence (Q16816 whole entry, looked up, canonical isoform): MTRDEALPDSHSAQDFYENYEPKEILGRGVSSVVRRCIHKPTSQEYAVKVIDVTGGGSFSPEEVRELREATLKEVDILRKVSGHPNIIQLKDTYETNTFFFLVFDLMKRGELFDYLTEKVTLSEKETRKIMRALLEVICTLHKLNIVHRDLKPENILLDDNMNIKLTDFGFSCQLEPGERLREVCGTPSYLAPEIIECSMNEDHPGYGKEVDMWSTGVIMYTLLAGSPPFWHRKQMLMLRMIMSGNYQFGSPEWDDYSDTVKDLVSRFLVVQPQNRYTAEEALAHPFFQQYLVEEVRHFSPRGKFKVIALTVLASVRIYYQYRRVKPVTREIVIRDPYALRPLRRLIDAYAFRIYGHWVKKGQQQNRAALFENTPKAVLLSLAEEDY
# Cyclin-dependent kinase 7 (Homo sapiens), sequence (P50613 whole entry): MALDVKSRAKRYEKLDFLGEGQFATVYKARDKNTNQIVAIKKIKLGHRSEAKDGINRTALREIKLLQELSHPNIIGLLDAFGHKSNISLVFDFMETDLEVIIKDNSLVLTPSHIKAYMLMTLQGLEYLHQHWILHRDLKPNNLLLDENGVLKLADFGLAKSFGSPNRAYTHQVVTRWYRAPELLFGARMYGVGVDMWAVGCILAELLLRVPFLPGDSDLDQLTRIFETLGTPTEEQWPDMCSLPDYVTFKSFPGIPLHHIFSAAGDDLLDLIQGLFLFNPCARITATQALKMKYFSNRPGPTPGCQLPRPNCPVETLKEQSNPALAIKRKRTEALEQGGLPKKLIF
# Tyrosine-protein kinase ABL1 (Homo sapiens), P00519 [F317I], sequence (P00519 whole entry F317I): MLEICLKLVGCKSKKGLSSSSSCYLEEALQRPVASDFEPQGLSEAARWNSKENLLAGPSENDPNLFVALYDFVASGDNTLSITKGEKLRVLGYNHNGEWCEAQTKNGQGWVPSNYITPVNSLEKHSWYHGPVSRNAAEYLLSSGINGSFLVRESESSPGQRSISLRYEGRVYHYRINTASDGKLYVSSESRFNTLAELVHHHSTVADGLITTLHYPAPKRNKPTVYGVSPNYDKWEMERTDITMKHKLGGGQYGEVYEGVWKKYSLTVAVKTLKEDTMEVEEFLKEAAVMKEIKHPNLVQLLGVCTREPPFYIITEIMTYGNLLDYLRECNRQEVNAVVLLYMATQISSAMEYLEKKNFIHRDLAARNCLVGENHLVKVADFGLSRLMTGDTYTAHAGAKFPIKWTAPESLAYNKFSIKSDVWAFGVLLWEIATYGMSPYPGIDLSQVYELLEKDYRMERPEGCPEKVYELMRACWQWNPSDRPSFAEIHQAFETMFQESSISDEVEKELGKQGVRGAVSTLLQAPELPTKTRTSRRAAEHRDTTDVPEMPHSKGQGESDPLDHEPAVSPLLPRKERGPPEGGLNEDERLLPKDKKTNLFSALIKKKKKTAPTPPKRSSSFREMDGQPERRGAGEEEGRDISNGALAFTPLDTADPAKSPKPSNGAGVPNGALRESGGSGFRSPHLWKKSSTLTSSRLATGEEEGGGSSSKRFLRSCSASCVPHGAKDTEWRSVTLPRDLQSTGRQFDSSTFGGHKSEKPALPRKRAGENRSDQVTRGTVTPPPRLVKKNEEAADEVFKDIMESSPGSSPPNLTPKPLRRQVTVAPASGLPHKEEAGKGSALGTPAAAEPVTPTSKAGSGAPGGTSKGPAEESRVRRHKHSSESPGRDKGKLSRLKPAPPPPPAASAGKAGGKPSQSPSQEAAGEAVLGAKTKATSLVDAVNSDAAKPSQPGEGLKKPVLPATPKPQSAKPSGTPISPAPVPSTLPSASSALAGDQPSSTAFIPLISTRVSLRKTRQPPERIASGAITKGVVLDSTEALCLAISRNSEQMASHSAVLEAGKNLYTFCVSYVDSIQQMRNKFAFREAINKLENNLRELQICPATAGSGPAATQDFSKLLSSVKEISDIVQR
# Mitogen-activated protein kinase kinase kinase 9 (Homo sapiens), sequence (P80192 whole entry, looked up): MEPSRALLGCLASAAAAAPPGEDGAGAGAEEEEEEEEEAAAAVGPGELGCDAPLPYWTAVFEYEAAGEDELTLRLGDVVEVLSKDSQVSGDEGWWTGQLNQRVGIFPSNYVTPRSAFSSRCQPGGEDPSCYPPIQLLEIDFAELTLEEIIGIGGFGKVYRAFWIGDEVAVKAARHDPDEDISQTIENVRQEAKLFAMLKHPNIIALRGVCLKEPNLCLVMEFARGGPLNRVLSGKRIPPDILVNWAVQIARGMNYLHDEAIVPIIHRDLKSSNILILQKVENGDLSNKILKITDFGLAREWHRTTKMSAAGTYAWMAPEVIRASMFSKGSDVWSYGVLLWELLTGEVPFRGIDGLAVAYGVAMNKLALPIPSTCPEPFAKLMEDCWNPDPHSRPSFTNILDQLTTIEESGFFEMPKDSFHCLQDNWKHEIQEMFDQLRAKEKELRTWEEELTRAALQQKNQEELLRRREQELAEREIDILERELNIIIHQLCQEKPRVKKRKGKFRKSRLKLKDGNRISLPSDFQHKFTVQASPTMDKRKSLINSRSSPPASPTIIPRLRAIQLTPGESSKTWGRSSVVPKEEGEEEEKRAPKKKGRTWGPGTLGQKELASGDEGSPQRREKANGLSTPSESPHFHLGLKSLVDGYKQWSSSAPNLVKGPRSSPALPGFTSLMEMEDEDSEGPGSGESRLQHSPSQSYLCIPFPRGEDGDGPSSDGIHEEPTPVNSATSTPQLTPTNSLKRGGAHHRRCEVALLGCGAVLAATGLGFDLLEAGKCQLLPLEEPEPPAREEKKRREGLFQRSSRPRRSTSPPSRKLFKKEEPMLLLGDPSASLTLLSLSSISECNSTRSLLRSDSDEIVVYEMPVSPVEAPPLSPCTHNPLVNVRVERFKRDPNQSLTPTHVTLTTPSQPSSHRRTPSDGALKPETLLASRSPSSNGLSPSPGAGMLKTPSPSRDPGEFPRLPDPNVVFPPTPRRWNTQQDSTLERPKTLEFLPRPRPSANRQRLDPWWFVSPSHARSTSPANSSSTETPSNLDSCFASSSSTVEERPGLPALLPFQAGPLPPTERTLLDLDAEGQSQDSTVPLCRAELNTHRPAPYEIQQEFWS
# Serine/threonine-protein kinase Chk2 (Homo sapiens), sequence (O96017 whole entry): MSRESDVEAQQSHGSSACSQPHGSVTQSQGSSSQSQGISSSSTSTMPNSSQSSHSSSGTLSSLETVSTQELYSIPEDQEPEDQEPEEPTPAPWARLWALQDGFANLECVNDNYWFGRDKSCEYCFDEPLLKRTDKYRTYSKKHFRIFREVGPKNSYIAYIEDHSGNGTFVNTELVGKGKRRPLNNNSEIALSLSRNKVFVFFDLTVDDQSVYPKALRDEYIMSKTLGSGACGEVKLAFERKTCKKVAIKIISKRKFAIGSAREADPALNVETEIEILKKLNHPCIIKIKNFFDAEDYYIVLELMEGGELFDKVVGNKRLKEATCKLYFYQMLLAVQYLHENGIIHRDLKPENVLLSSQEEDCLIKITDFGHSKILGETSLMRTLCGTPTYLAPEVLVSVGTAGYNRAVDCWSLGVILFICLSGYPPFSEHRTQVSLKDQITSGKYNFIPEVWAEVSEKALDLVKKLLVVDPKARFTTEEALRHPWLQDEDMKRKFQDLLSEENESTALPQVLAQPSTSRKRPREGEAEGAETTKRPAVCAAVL
# Protein kinase C epsilon type (Homo sapiens), sequence (Q02156 whole entry): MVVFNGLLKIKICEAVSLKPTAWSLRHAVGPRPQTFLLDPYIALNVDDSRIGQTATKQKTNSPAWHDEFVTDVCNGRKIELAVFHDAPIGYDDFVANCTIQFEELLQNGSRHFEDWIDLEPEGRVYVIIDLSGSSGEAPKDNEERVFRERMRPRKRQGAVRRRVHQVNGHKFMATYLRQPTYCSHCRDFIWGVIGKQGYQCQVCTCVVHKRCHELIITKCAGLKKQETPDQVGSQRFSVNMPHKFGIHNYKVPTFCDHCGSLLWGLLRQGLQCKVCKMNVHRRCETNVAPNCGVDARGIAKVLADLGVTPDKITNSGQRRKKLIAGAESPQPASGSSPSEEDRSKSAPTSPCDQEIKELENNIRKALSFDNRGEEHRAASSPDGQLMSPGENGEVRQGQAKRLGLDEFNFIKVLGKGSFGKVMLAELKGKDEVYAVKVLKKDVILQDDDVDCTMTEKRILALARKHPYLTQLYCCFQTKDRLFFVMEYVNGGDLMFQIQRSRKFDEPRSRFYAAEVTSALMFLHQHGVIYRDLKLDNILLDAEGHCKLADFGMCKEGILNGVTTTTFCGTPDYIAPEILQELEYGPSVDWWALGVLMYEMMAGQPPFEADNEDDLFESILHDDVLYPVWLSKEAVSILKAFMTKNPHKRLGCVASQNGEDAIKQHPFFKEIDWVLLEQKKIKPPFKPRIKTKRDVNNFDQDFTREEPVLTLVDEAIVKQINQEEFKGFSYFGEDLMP
smiles,measurement,setting,value
CNC(=O)Nc1ccc2c(c1)CC[C@@]21OC(=O)N(CC(=O)N(Cc2ccc(F)cc2)[C@@H](C)C(F)(F)F)C1=O [A-485],IC50,LNCaP-Clone-FGC,0.381 µM (active)
same,inhibition,[1],99%
same,inhibition at 10 µM,[2],19% (not active)
same,inhibition,[3],11%
same,inhibition at 10 µM,[4],2% (not active)
same,residual activity,[5],71%
same,residual activity,[6],88%
same,residual activity,[7],75%
same,residual activity,[8],70%
same,residual activity,[9],94%
same,residual activity,[10],76%
same,residual activity,[11],78%
same,residual activity,[12],100%
same,residual activity,[13],92%
same,residual activity,[14],96%
same,residual activity,[15],72%
same,residual activity,[16],80%
same,residual activity,[17],91%
same,residual activity,[18],74%
same,residual activity,[19],100%
same,residual activity,[20],99%
same,residual activity,[21],99%
same,residual activity,[22],73%
same,residual activity,[23],100%
same,residual activity,[24],84%
same,residual activity,[25],89%
same,residual activity,[26],88%
same,residual activity,[27],82%
same,residual activity,[28],89%
same,residual activity,[29],88%
same,residual activity,[30],89%
same,residual activity,[31],100%
same,residual activity,[32],97%
same,residual activity,[33],22%
same,residual activity,[34],98%
same,residual activity,[35],87%
same,residual activity,[36],74%
same,residual activity,[37],70%
same,residual activity,[38],90%
same,residual activity,[39],87%
same,residual activity,[40],100%
same,inhibition,[41],5.99%
same,inhibition,[42],95.6%
same,inhibition,[43],0.39%
CNC(=O)Nc1ccc2c(c1)[C@@]1(CC2)OC(=O)N(CC(=O)N(Cc2ccc(F)cc2)[C@@H](C)C(F)(F)F)C1=O [A-486],IC50,LNCaP-Clone-FGC,> 10 µM (not active)
same,inhibition,[1],40%
same,inhibition at 10 µM,[2],-5% (not active)
same,inhibition,[3],1%
same,inhibition at 10 µM,[4],-5% (not active)
same,residual activity,[5],78%
same,residual activity,[6],100%
same,residual activity,[7],88%
same,residual activity,[8],90%
same,residual activity,[9],100%
same,residual activity,[10],99%
same,residual activity,[11],76%
same,residual activity,[12],100%
same,residual activity,[13],100%
same,residual activity,[14],76%
same,residual activity,[15],87%
same,residual activity,[16],91%
same,residual activity,[17],91%
same,residual activity,[18],76%
same,residual activity,[19],100%
same,residual activity,[20],92%
same,residual activity,[21],100%
same,residual activity,[22],91%
same,residual activity,[23],94%
same,residual activity,[24],86%
same,residual activity,[25],87%
same,residual activity,[26],100%
same,residual activity,[27],86%
same,residual activity,[28],100%
same,residual activity,[29],98%
same,residual activity,[30],95%
same,residual activity,[31],100%
same,residual activity,[32],89%
same,residual activity,[33],99%
same,residual activity,[34],100%
same,residual activity,[35],84%
same,residual activity,[36],77%
same,residual activity,[37],82%
same,residual activity,[38],100%
same,residual activity,[39],100%
same,residual activity,[40],59%
same,inhibition,[41],2.78%
same,inhibition,[42],31%
same,inhibition,[43],13.2%
